Three molecules from BindingDB's records for doi:10.7270/Q2Z31X54 (Burnham Center For Chemical Genomics, 2011) can be followed below.

For the experiment, the target named is T1, Endoribonuclease toxin MazF (Escherichia coli (strain K12), UniProt P0AE70).
T1 sequence (P0AE70 whole entry): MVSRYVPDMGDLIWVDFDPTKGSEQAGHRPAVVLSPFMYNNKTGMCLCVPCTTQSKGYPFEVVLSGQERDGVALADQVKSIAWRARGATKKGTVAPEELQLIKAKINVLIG
In words: activation of MazEF endoribonuclease cleavage – biochemical, fluorescence, single-stranded RNA substrate, uHTS hits, dose response (AID 588481).
With `O=[N+]([O-])c1ccc(N=NCc2cccc3ccccc23)nc1` [N-(naphthalen-1-ylmethylideneamino)-5-nitro-pyridin-2-amine], the EC50 was above 99 µM. With `Oc1ccc2ccccc2c1C=Nn1c(O)csc1=S` [MLS002707175], the EC50 was above 99 µM. In the case of `CC1(C)CC(=O)C(N=Nc2cc3c(cc2[N+](=O)[O-])OCCO3)C(=O)C1` [SMR000348183] it was above 99 µM.

As usually defined, the EC50 is the concentration giving half of the maximal effect.
